The text below walks through data of paper PMC9947563, “Identification of the molecular determinants of antagonist potency in the allosteric binding pocket of human P2X4” (Frontiers in Pharmacology, 2023).

Assay [1] addresses T1, human P2X4 wild type (h4-WT) (Homo sapiens, UniProt Q99571).
T1 construct: expressed in transfected cells; host or cells: 1321N1 astrocytoma cells, stably transfected
T1 sequence (Q99571 1-388): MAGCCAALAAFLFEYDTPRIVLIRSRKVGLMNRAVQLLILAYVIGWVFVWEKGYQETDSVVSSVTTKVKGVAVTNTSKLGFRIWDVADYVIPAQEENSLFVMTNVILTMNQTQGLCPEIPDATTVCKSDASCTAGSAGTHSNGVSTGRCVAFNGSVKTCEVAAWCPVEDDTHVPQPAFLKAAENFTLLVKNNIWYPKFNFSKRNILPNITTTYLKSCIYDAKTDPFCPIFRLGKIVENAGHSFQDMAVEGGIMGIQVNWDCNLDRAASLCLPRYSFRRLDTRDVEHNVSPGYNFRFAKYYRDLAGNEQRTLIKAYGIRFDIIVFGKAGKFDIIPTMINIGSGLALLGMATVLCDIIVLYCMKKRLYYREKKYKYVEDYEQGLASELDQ
Nature of the assay: ATP-induced calcium influx (Fluo-4) in 1321N1 cells stably expressing human P2X4 wild type. The class given is cell-based. Conditions: human vs rat P2X4. Here is the method:
1321N1 astrocytoma cells were cultured (at 37°C, 5% CO2) in Dulbecco’s modified Eagle’s medium (DMEM/F-12 with Glutamax) supplemented with 10% foetal bovine serum (FBS) and 200 unit/mL of penicillin and streptomycin antibiotics (Fisher Scientific). Stably transfected clones were grown in DMEM/F-12 with Glutamax medium supplemented with G-418 (Geneticin®, Fisher Scientific), 600 μg/mL and 150 μg/mL during selection and maintenance, respectively. […] Each cell line was then tested for P2X4 receptor expression by Western blot and for functionality using the Ca^2+ influx assay.
Cells were plated the day before assay into poly-lysine-coated 96-well plates at 40–55,000 cells/mL. […] Prior to assay, buffer was replaced with fresh modified Ringer’s buffer containing probenecid but not the dye. […] A Fluoroskan Ascent FL plate reader (Fisher Scientific) equipped with a solution dispenser and an appropriate filter pair (excitation: 485 nm, emission: 538 nm) was used to record 5-s baseline followed by P2X4-mediated calcium influx measurements for 20–25 s after ATP stimulation (final concentration ranging between 0.03 and 100 μM in buffered solution, pH = 7.4). The collected responses were normalized to the first data-point recorded after ATP injection.
Data processing and data analysis were carried out using Graphpad Prism version 6 for Mac. Figures are presented as Mean ± SEM. […] When comparing data obtained from multiple independent experiments (N), each dataset was normalized to the mean value obtained for the vehicle control.

Assay [2] deals with T2, rat P2X4 T312I (r4-T312I) (Rattus norvegicus, UniProt P51577, T312I).
T2 construct: expressed in transfected cells; host or cells: 1321N1 astrocytoma cells, stably transfected
T2 sequence (P51577 1-388 T312I): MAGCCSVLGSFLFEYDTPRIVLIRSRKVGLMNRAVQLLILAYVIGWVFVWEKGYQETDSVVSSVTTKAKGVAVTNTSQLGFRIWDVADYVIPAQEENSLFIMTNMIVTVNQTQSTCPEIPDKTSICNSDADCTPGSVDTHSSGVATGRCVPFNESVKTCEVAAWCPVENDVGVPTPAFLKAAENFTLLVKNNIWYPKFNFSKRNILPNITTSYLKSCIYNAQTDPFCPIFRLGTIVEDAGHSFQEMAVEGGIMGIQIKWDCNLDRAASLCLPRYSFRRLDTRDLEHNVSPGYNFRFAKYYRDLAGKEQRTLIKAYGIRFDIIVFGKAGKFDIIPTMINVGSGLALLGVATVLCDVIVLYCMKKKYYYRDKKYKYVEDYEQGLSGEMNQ
Nature of the assay: ATP-induced calcium influx (Fluo-4) in 1321N1 cells stably expressing rat P2X4 T312I. The assay is classed as cell-based. The source says: Plasmid encoding rat P2X4 (r4-WT) ([Royle et al., 2005]) was a kind gift from Ruth Murrell-Lagnado, whilst that encoding human P2X4 with a C-terminal (His)10 tag has been reported previously ([Young et al., 2008]). Plasmids containing rat P2X4 T312I (r4-T312I) and human P2X4 I312T mutants (h4-I312T) were generated using the QuikChange Lightning site-directed mutagenesis kit (Agilent) according to manufacturer’s instructions. Sequencing of the constructs and of the genomic DNA from stably transfected cells confirmed correct full coding sequences.
1321N1 astrocytoma cells were cultured (at 37°C, 5% CO2) in Dulbecco’s modified Eagle’s medium (DMEM/F-12 with Glutamax) supplemented with 10% foetal bovine serum (FBS) and 200 unit/mL of penicillin and streptomycin antibiotics (Fisher Scientific). Stably transfected clones were grown in DMEM/F-12 with Glutamax medium supplemented with G-418 (Geneticin®, Fisher Scientific), 600 μg/mL and 150 μg/mL during selection and maintenance, respectively. FuGene HD Transfection Reagent (Promega) was used according to the manufacturer’s protocol for the generation of stable cell line expressing h4-WT, r4-WT, h4-I312T, and r4-T312I. Each cell line was then tested for P2X4 receptor expression by Western blot and for functionality using the Ca^2+ influx assay.
Cells were plated the day before assay into poly-lysine-coated 96-well plates at 40–55,000 cells/mL. To load cells with calcium-sensitive fluorescent dye, culture medium was replaced with modified Ringer’s buffer (140 mM NaCl, 10 mM HEPES, 10 mM Glucose, 1 mM MgCl2, 1 mM CaCl2, 2.5 mM KCl, 0.5% BSA, pH = 7.4) containing 2.6 μM FLUO4-AM (Fisher Scientific) and 250 μM probenecid (Sigma), and cells were incubated for 20–30 min. Prior to assay, buffer was replaced with fresh modified Ringer’s buffer containing probenecid but not the dye. […] A Fluoroskan Ascent FL plate reader (Fisher Scientific) equipped with a solution dispenser and an appropriate filter pair (excitation: 485 nm, emission: 538 nm) was used to record 5-s baseline followed by P2X4-mediated calcium influx measurements for 20–25 s after ATP stimulation (final concentration ranging between 0.03 and 100 μM in buffered solution, pH = 7.4). The collected responses were normalized to the first data-point recorded after ATP injection.
Data processing and data analysis were carried out using Graphpad Prism version 6 for Mac. Figures are presented as Mean ± SEM. Statistical significance of any difference observed between samples was calculated through one-way ANOVA followed by Dunnett’s multiple comparisons test with a single pooled variance (control, unless otherwise specified) or, when comparing only two sets of data, using an unpaired t-test with Welch’s correction. When comparing data obtained from multiple independent experiments (N), each dataset was normalized to the mean value obtained for the vehicle control.

For assay [3], the system named is zebrafish P2X4. On the set-up: method as in Ase et al. (2015). Conditions: ref Ase et al. (2015); cited from earlier work.

The IC50 is the midpoint of a concentration-inhibition curve.

`CC(C)c1cc(Br)c(NC(=O)Nc2cccnc2)c(Br)c1` [BX430]: the “potency at human P2X4 compared with the rat isoform” value in assay [1] is listed as “approximately 30 fold”. Further, the half-maximal inhibitory concentration (IC50) in assay [2] is 1390 nM; in assay [3], 1890 nM. In assay [2] (rat P2X4 T312I vs rat P2X4 WT), the “increase in BX430 potency by T312I mutation in rat P2X4” value is “approx. 47 fold”. Besides, the “Hill coefficient (BX-430 inhibition curve)” value in assay [2] (rat P2X4 T312I, 1 µM ATP) came to 2.475.
